Laboratory results as given in patent publication US7652017B2, “Remedies and/or preventives for nervous system disorders” (Mitsubishi Tanabe Pharma Corporation, priority 1999, dated 2010).

What was measured:
[1] = biological target: T1, sarcoplasmic reticulum calcium ion-ATPase (Canis lupus familiaris, UniProt O46674); test: Sarcoplasmic reticulum calcium ion-ATPase activity of myocardium fractions; format: biochemical, dog
T1 construct: their hearts were isolated and the myocardium in post-ischemic region and non-ischemic region the left ventricles were collected; from tissue; host or cells: dog left-ventricle myocardium (post-ischemic and non-ischemic regions), sarcoplasmic reticulum fraction

[2] = system: hippocampus CA1 pyramidal cells; test: Action on delayed neuronal cell death in rat (10-minute forebrain ischemia); format: in vivo
Procedure: (§1) Bilateral vertebral arteries of Wister male rats weighing 250 to 300 g were electrically cauterized before 24 hours from ischemic induction to prepare rats showing no neurological symptom such as hemiplegia. Only vertebral arteries of rats were cauterized to prepare rats as sham operation group. Before 30 minutes from ischemic induction, 0.1 mg/kg-b.w. or 1 mg/kg-b.w. of 5-methyl-2-(1-piperazinyl)benzenesulfonic acid monohydrate suspended in distilled water was administered orally to the rat of drug administration group and the equivalent dose of distilled water was administered to the rat of control group.
Ischemia was inducted by 10-minutes' bilateral occlusion of the common carotid arteries under ether anesthesia. […] During ischemia and after recirculation, until recovery of righting reflex, the rats were put on the heating mat to maintain their body temperature. After 72 hours from recirculation, the brain of the rat was fixed by perfusion with a fixative, FAM (formalin:acetic acid:methanol ▭1:1:8). After that, it was embedded by paraffin and a 5 μm thick slice of the forebrain was prepared in an usual manner Haematoxylin stain was conducted and the number of hippocampus CA1 pyramidal cells were counted to obtain the number of the cells per mm (neuronal density). The number of hippocampus CA1 pyramidal cells in sham operation group was 166.0±6.7. After 10 minutes ischemia induction, the number of hippocampus CA1 pyramidal cells in control group (distilled water administration group) was 31.2±13.3 and about 80% of total neuronal cells were led into degeneration and necrosis. The number of hippocampus CA1 pyramidal cells in 0.1 and 1 mg/kg 5-methyl-2-(1-piperazinyl)benzenesulfonic acid monohydrate oral administration group was 74.3±16.0 and 104.1±21.9, respectively. Both of them inhibited neuronal cell death dose-dependently and there is a significant difference between 1 mg/kg administration group and the control group.
(§2) The action on delayed neuronal cell death in rat was observed by the same method as Example 1 except for intravenously administering 0.03 mg/kg-b.w. or 0.3 mg/kg-b.w. of 5-n-propyl-2-(1-piperazinyl)benzenesulfonic acid suspended in distilled water instead of 5-methyl-2-(1-piperazinyl)benzenesulfonic acid monohydrate as a drug.

[3] = Action on disturbance of passive avoidance behavior in rat (5-minute ischemia); format: in vivo
Procedure: as §1, with “cauterized before 48 hours from” for “cauterized before 24 hours from”, “control group. The experiment was conducted by using the apparatus consisting of the bright room (50×50×50 cm) with 100 W lamp and the dark room (20×14×20 cm). The rat electrically cauterized bilateral vertebral arteries was put in the bright room to count the transit time to the dark room. The transit time was identified the reaction latency in the acquisition trial.” for “control group.”
The guillotine door was closed when the rat entered into the dark room and the rat was given electrical shock (2.9 mA, 5 seconds) from the floor grid to finish the acquisition trial.
Ischemia was inducted by 5-minutes' bilateral occlusion of the common carotid arteries under ether anesthesia. […] During ischemia and after recirculation, until recovery of righting reflex, the rats were put on the heating mat to maintain their body temperature. After 48 hours from recirculation, the retention trial was conducted. As the same manner as the acquisition trial, the rat put in the bright room had been observed for at most 300 seconds to count the transit time to the dark room (the reaction latency).
as §2, with “disturbance of passive avoidance” for “delayed neuronal cell death”

[4] = system: ischemic/reperfused myocardium; test: Regional cardiac function (% SS) in ischemic/reperfused myocardium in dogs; format: in vivo, dog; conditions: 3 μg/kg i.v. 5 minutes before reperfusion; 30-min LAD occlusion, 1 h reperfusion
Procedure: The chest of mongrel dogs (adults, male and female) was opened under anesthesia with pentobarbital (30 mg/kg, i.v.) and a portion of the left coronary anterior descending (LAD) was dissected. A catheter-tip-pressure transducer (Millar; MPC-500) was inserted from the left carotid artery into the left ventricle to determine the left ventricular pressure and its first differential value (dP/dt). A pair of crystal probes were mounted in the LAD region to determine changes in regional segment length. Diastolic segment length (EDL; threshold point of dP/dt) and systolic segment length (ESL; dP/dt(−) max point) were determined from the waveform of dP/dt, and the regional segment shortening (% SS) in the ischemic/reperfused myocardium was calculated as follows: % SS=(EDL−ESL)/[…]×100
After hemodynamic stability is established following operation, the dissected portion of LAD was occluded for 30 minutes and then reperfused for 1 hour. At the same time, the cardiac function (% SS) in the above-described ischemic/reperfused region was continuously monitored throughout the protocol.
The animals were randomly grouped into two groups, one consisting of animals to be administered with 5-methyl-2-(1-piperazinyl)benzenesulfonic acid monohydrate (drug administration group; N=6) and the other of control group (N=6). […]

[5] = system: papillary muscle of the right ventricle; test: Inhibition of the cardiotonic action of isoproterenol in isolated papillary muscle; parameters: species or system guinea-pig; conditions: Cavia porcellus, read-out: Inhibition (%) of developed tension increased by isoproterenol
Procedure: For the evaluation of the extent of inhibiting overaccumulation of intracellular calcium ions, inhibition of the cardiotonic action of isoproterenol by the compounds described in Table 1 and Table 2 as mentioned above was measured.
That is to say, since isoproterenol has been known to cause calcium ions overload by excessive calcium ions influx into cardiac myocytes (Fleckenstein A., Janke J., Doring H., Leder O.; Recent advances in Studies on cardiac structure and metabolism, Myocardial Biology, Vol. 4, pp. 563-580 (1974)), the compounds which inhibit the action of isoproterenol can inhibit intracellular calcium ions overload.
The papillary muscle of the right ventricle isolated from male Hartley guinea-pigs (body weight: 250 to 350 g) was suspended in an organ bath filled with a nutrient solution (Krebs-Henseleit solution). The temperature of the nutrient solution was maintained at 32° C., and the solution was aerated with a gas mixture of 95% oxygen and 5% carbon dioxide. The papillary muscle was applied with a resting tension of about 0.5 g, and stimulated with platinum electrodes by a rectangular pulse of a duration of 1 msec, a frequency of 1 Hz and a voltage higher by 15% than the threshold value. The developed tension of the papillary muscle was measured through a tension transducer and recorded with a polygraph system. After the preparation was stabilized for about 90 minutes, isoproterenol ( 10^−3 to 10^−7 M) was added into the organ bath so that developed tension could be increased by 100% or more, and at the point when the maximum response was obtained, the compounds of the present invention were added into the organ bath, and % inhibition of the developed tension increased by isoproterenol was measured.

T1 sequence (O46674 whole entry): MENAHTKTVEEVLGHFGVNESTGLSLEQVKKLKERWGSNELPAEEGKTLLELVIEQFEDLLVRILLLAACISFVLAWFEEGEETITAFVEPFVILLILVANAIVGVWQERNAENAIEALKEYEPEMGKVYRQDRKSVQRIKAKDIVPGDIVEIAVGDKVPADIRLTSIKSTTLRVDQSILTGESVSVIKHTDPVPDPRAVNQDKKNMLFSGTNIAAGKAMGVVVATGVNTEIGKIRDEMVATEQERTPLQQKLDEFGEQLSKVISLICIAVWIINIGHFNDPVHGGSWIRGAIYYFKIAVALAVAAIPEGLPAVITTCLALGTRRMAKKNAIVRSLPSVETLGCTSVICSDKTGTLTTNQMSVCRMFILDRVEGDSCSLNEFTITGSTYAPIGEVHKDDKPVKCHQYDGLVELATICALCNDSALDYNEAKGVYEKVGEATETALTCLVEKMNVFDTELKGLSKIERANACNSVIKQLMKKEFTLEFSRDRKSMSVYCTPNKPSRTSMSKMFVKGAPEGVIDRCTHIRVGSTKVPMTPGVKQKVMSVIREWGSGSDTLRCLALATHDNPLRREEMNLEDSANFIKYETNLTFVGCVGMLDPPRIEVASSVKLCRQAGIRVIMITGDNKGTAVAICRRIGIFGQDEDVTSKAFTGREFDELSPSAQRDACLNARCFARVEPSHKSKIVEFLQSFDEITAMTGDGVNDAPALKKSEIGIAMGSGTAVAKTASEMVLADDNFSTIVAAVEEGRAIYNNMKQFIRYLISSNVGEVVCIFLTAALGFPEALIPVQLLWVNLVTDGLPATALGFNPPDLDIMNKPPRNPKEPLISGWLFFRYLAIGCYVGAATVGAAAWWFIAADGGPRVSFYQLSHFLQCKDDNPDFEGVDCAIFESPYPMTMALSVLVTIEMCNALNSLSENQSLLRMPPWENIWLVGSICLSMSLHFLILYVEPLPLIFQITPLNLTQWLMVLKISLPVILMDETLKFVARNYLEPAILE

For C/C=C(/C)C(=O)O[C@H]1C(C)=C2[C@H]([C@@H]1OC(=O)CCCCCCC)[C@@](C)(OC(C)=O)C[C@H](OC(=O)CCC)[C@@]1(O)[C@H]2OC(=O)[C@@]1(C)O [Thapsigargin, reference compound], which “inhibition of sarcoplasmic reticulum calcium ion-ATPase activity” value ([1]; 1 μM added in vitro) is on record?
The value was “completely inhibited”.

With Cc1ccc(N2CCNCC2)c(S(=O)(=O)O)c1.O [5-methyl-2-(1-piperazinyl)benzenesulfonic acid monohydrate] as the molecule, how does the “number of hippocampus CA1 pyramidal cells (neuronal density)” value ([2]; 0.1 mg/kg oral 30 min before 10-min ischemia, 72 h after recirculation, control 31.2±13.3, sham 166.0±6.7) read?
The value was 74.3±16.0 per mm.

And the “number of hippocampus CA1 pyramidal cells (neuronal density)” value ([2]; 1 mg/kg oral 30 min before 10-min ischemia, 72 h after recirculation, P<0.05 vs control 31.2±13.3)?
The value was 104.1±21.9 per mm.

What about the “reaction latency in the retention trial” value ([3]; 0.1 mg/kg oral, 48 h after 5-min ischemia, control 71.4±29.4, sham 206.1±29.4) of the same molecule?
The value was 97.7 ± 31.2 s.

What about the “reaction latency in the retention trial” value ([3]; 1 mg/kg oral, 48 h after 5-min ischemia, control 71.4±29.4, sham 206.1±29.4) of the same molecule?
The value was 139.0 ± 27.5 s.

What about the “regional cardiac function (% SS) in post-reperfusion region compared to control group” value [4] of the same molecule?
The value was “significantly improved”.

And the “calcium ion-ATPase activity of sarcoplasmic reticulum, post-ischemic region” value ([1]; calcium ion concentration 10 μM, dogs given 3 μg/kg i.v. before reperfusion, control 0.070±0.004, P<0.05)?
The value was 0.090±0.008 μmol Pi/mg min.

What about the “calcium ion-ATPase activity of sarcoplasmic reticulum, non-ischemic region” value ([1]; calcium ion concentration 10 μM, dogs given 3 μg/kg i.v. before reperfusion, control 0.089±0.009, no significant difference) of the same molecule?
Its value is 0.088±0.006 μmol Pi/mg min.

Which results are given for CCCc1ccc(N2CCNCC2)c(S(=O)(=O)O)c1 [Compound 14, 5-n-propyl-2-(1-piperazinyl)benzenesulfonic acid]?
number of hippocampus CA1 pyramidal cells (neuronal density) ([2]; 0.03 mg/kg, P<0.01, control 71.3±10.3, sham 177.8±5.3): 125.1±5.7 per mm; number of hippocampus CA1 pyramidal cells (neuronal density) ([2]; 0.3 mg/kg, P<0.05, control 71.3±10.3, sham 177.8±5.3): 131.9±9.9 per mm; reaction latency in the retention trial ([3]; 0.03 mg/kg intravenous, 5-min ischemia, P<0.001, control 88.2±18.1, sham 243.5±31.6): 253.4 ± 25.6 s; reaction latency in the retention trial ([3]; 0.3 mg/kg intravenous, 5-min ischemia, P<0.05, control 88.2±18.1, sham 243.5±31.6): 187.2 ± 36.1 s; reaction latency in the acquisition trial ([3]; every group (0.03 and 0.3 mg/kg intravenous, control, sham), no significant difference): about 20 seconds; inhibition at 100 µM ([5]; drug concentration 10^−4 M): 19.2%; inhibition at 10 µM ([5]; drug concentration 10^−5 M): 10.4%

For Cc1ccc(N2CCNCC2)c(S(=O)(=O)O)c1 [Compound 12, 5-methyl-2-(1-piperazinyl)benzenesulfonic acid], which inhibition at 1000 µM ([5]; drug concentration 10^−3 M) is on record?
The inhibition at 1000 µM was 18.5%.
